# Measured values as given in ChEMBL document CHEMBL4219063, “New photodynamic molecular beacons (PMB) as potential cancer-targeted agents in PDT” (Bioorg Med Chem, 2018).
# Calls of active or inactive are those of the source. The calls are words filed in the database; no cut-off is given here. Square brackets hold non-standard residues; d marks the D form. Peptide text beside a SMILES is read from it. * marks the point of attachment. ξ: configuration not given here. Benzoyl(4-TriPhPorphyrinyl) = O=C(c1ccc(-c2c3nc(c(-c4ccccc4)c4ccc([nH]4)c(-c4ccccc4)c4nc(c(-c5ccccc5)c5ccc2[nH]5)C=C4)C=C3)cc1)*; Pyropheophorbide(a) = C=Cc1c(C)c2cc3nc(c4c5[nH]c(cc6nc(cc1[nH]2)C(C)=C6CC)c(C)c5C(=O)C4)[C@@H](CCC(=O)*)[C@@H]3C; X2 = COc1cc(/N=N/c2cc3c4c(c2OCCCCCC(=O)*)CCCN4CCC3)c(OC)cc1/N=N/c1ccc([N+](=O)[O-])cc1; X1 = CCN(CC)c1ccc2nc3ccc(/N=N/c4ccc(N(C)CCCC(=O)*)cc4)cc3[n+](-c3ccccc3)c2c1; ξThr(3R) = C[C@@H](O)C(N)C(=O)O; AEEA = NCCOCCOCC(=O)O
# Experiments:
# [1] = In vitro photodynamic activity in ethanol assessed as decrease in singlet oxygen production by spectrophotometry; type: functional; design: scale not given: the % may be the effect or the level left
# [2] = target: Matrix metalloproteinase-14 (Mus musculus) (UniProt P53690); assay: Substrate activity at MT1-MMP in mouse B16F1 cells assessed as enzyme-mediated substrate cleavage at 100 uM after 24 hrs by HPLC analysis; type: cell-based
# [3] = In vitro photodynamic activity in ethanol assessed as fluorescence quenching by time-correlated single photon counting method; type: functional
# MMP9 = MMP9 (Homo sapiens, UniProt P14780); assay: Substrate activity at MMP9 (unknown origin) assessed as enzyme-mediated substrate hydrolysis at 100 umol/L after 8 hrs by UV-HPLC method relative to control; type: ADME; details: read-out: Drug metabolism
# MMP9, sequence (P14780 whole entry): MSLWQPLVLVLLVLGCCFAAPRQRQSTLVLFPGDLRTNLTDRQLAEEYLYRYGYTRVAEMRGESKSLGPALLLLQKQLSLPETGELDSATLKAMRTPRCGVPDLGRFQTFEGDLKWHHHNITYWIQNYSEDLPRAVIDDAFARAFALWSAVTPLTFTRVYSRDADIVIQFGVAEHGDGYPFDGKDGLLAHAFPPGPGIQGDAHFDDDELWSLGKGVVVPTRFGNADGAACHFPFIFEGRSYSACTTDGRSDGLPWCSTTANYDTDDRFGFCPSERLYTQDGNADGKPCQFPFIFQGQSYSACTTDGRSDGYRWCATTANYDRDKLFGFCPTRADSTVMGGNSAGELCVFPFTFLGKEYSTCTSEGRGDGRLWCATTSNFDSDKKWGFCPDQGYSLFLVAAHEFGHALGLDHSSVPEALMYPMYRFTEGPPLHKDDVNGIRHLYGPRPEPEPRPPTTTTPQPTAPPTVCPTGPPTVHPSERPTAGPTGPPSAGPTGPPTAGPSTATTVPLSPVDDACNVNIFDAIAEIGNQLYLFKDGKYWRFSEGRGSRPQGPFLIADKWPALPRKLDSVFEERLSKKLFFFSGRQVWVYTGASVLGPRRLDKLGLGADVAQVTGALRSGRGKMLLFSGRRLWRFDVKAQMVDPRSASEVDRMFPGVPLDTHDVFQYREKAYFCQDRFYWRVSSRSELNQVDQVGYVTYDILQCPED
# MMP14 = MMP14 (Homo sapiens, UniProt P50281); assay: Substrate activity at MMP14 (unknown origin) assessed as enzyme-mediated substrate hydrolysis at 100 umol/L after 8 hrs by UV-HPLC method relative to control; type: ADME; details: read-out: Drug metabolism
# MMP2 = MMP2 (Homo sapiens, UniProt P08253); assay: Substrate activity at MMP2 (unknown origin) assessed as enzyme-mediated substrate hydrolysis at 100 umol/L after 8 hrs by UV-HPLC method relative to control; type: ADME; details: read-out: Drug metabolism
# MMP2, sequence (P08253 whole entry): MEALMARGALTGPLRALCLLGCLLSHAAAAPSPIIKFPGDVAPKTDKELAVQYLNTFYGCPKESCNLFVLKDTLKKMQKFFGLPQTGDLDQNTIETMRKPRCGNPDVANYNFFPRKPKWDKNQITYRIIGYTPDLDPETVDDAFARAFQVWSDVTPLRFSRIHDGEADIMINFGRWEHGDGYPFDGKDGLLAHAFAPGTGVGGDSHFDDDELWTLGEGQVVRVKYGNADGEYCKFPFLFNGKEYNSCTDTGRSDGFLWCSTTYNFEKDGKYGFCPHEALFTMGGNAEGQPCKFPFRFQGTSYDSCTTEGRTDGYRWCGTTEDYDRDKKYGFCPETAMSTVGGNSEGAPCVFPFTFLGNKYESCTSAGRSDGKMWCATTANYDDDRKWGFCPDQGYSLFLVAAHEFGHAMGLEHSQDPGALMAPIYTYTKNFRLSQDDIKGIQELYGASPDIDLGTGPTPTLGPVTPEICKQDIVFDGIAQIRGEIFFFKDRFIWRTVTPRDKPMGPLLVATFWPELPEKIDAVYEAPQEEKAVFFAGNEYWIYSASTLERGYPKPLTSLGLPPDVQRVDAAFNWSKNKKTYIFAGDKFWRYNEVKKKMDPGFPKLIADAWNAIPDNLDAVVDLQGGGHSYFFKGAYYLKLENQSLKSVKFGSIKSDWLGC
Compound,"metabolised at 8 h, 100 µM (MMP14)","metabolised at 8 h, 100 µM (MMP2)",Activity [1],Activity [3],other results
CC[C@H](C)[C@H](NC(=O)[C@H](CCCNC(=N)N)NC(=O)CNC(=O)c1ccc(-c2c3nc(c(-c4ccccc4)c4ccc([nH]4)c(-c4ccccc4)c4nc(c(-c5ccccc5)c5ccc2[nH]5)C=C4)C=C3)cc1)C(=O)NCC(=O)N[C@@H](Cc1ccccc1)C(=O)N[C@@H](CC(C)C)C(=O)N[C@@H](CCCNC(=N)N)C(=O)N[C@H](C(=O)N[C@@H](C)C(=O)N[C@@H](CCCCNC(=O)CCCCCOc1c(/N=N/c2cc(OC)c(/N=N/c3ccc([N+](=O)[O-])cc3)cc2OC)cc2c3c1CCCN3CCC2)C(=O)NCC(=O)NCC(=O)O)[C@@H](C)O ({Benzoyl(4-TriPhPorphyrinyl)}-GRIGFLRTAK(X2)GG-OH),–,–,80%,90%,Activity [2]: Active
C=Cc1c(C)c2cc3nc(c4c5[nH]c(cc6nc(cc1[nH]2)C(C)=C6CC)c(C)c5C(=O)C4)[C@@H](CCC(=O)NCC(=O)N[C@@H](CCCNC(=N)N)C(=O)N[C@H](C(=O)NCC(=O)N[C@@H](Cc1ccccc1)C(=O)N[C@@H](CC(C)C)C(=O)N[C@@H](CCCNC(=N)N)C(=O)N[C@H](C(=O)N[C@@H](C)C(=O)N[C@@H](CCCCN)C(=O)NCC(=O)NCC(=O)O)[C@@H](C)O)[C@@H](C)CC)[C@@H]3C ({Pyropheophorbide(a)}-GRIGFLRTAKGG-OH),–,–,–,–,"metabolised at 8 h, 100 µM (MMP9): 5%"
H-GRIGFLRTAKGG-OH,99%,26%,–,–,–
CC[C@H](C)[C@H](NC(=O)[C@H](CCCNC(=N)N)NC(=O)CNC(=O)c1ccc(-c2c3nc(c(-c4ccccc4)c4ccc([nH]4)c(-c4ccccc4)c4nc(c(-c5ccccc5)c5ccc2[nH]5)C=C4)C=C3)cc1)C(=O)NCC(=O)N[C@@H](Cc1ccccc1)C(=O)N[C@@H](CC(C)C)C(=O)N[C@@H](CCCNC(=N)N)C(=O)N[C@H](C(=O)N[C@@H](C)C(=O)N[C@@H](CCCCNC(=O)CCCN(C)c1ccc(/N=N/c2ccc3nc4ccc(N(CC)CC)cc4[n+](-c4ccccc4)c3c2)cc1)C(=O)NCC(=O)NCC(=O)O)[C@@H](C)O ({Benzoyl(4-TriPhPorphyrinyl)}-GRIGFLRTAK(X1)GG-OH),–,–,100%,80%,–
C=Cc1c(C)c2cc3nc(c4c5[nH]c(cc6nc(cc1[nH]2)C(C)=C6CC)c(C)c5C(=O)C4)[C@@H](CCC(=O)NCC(=O)N[C@@H](CCCNC(=N)N)C(=O)N[C@H](C(=O)NCC(=O)N[C@@H](Cc1ccccc1)C(=O)N[C@@H](CC(C)C)C(=O)N[C@@H](CCCNC(=N)N)C(=O)N[C@H](C(=O)N[C@@H](C)C(=O)N[C@@H](CCCCNC(=O)CCCN(C)c1ccc(/N=N/c2ccc4nc5ccc(N(CC)CC)cc5[n+](-c5ccccc5)c4c2)cc1)C(=O)NCC(=O)NCC(=O)O)[C@@H](C)O)[C@@H](C)CC)[C@@H]3C ({Pyropheophorbide(a)}-GRIGFLRTAK(X1)GG-OH),–,–,100%,93%,–
CC[C@H](C)[C@H](NC(=O)[C@H](CCCNC(=N)N)NC(=O)CNC(=O)COCCOCCN)C(=O)NCC(=O)N[C@@H](Cc1ccccc1)C(=O)N[C@@H](CC(C)C)C(=O)N[C@@H](CCCNC(=N)N)C(=O)N[C@H](C(=O)N[C@@H](C)C(=O)N[C@@H](CCCCN)C(=O)NCC(=O)NCC(=O)O)[C@@H](C)O (H-[AEEA]GRIGFLRTAKGG-OH),100%,20%,–,–,–
CC[C@H](C)[C@H](NC(=O)[C@H](CCCNC(=N)N)NC(=O)CNC(=O)COCCOCCNC(=O)c1ccc(-c2c3nc(c(-c4ccccc4)c4ccc([nH]4)c(-c4ccccc4)c4nc(c(-c5ccccc5)c5ccc2[nH]5)C=C4)C=C3)cc1)C(=O)NCC(=O)N[C@@H](Cc1ccccc1)C(=O)N[C@@H](CC(C)C)C(=O)N[C@@H](CCCNC(=N)N)C(=O)N[C@H](C(=O)N[C@@H](C)C(=O)N[C@@H](CCCCNC(=O)CCCN(C)c1ccc(/N=N/c2ccc3nc4ccc(N(CC)CC)cc4[n+](-c4ccccc4)c3c2)cc1)C(=O)NCC(=O)NCC(=O)O)[C@@H](C)O ({Benzoyl(4-TriPhPorphyrinyl)-AEEA}-GRIGFLRTAK(X1)GG-OH),–,–,100%,80%,–
C=Cc1c(C)c2cc3nc(c4c5[nH]c(cc6nc(cc1[nH]2)C(C)=C6CC)c(C)c5C(=O)C4)[C@@H](CCC(=O)NCC(=O)N[C@@H](CCCNC(=N)N)C(=O)N[C@H](C(=O)NCC(=O)N[C@@H](Cc1ccccc1)C(=O)N[C@@H](CC(C)C)C(=O)N[C@@H](CCCNC(=N)N)C(=O)N[C@H](C(=O)N[C@@H](C)C(=O)N[C@@H](CCCCNC(=O)CCCCCOc1c(/N=N/c2cc(OC)c(/N=N/c4ccc([N+](=O)[O-])cc4)cc2OC)cc2c4c1CCCN4CCC2)C(=O)NCC(=O)NCC(=O)O)[C@@H](C)O)[C@@H](C)CC)[C@@H]3C ({Pyropheophorbide(a)}-GRIGFLRTAK(X2)GG-OH),–,–,77%,88%,–

# Second part, led by results:
"metabolised at 8 h, 100 µM (MMP14)","metabolised at 8 h, 100 µM (MMP2)",Compound,Activity [1],Activity [3],other results
31%,–,CC[C@H](C)[C@H](NC(=O)[C@H](CCCNC(=N)N)NC(=O)CN)C(=O)NCC(=O)N[C@@H](Cc1ccccc1)C(=O)N[C@@H](CC(C)C)C(=O)N[C@@H](CCCNC(=N)N)C(=O)N[C@H](C(=O)N[C@@H](C)C(=O)N[C@@H](CCCCNC(=O)CCCCCOc1c(/N=N/c2cc(OC)c(/N=N/c3ccc([N+](=O)[O-])cc3)cc2OC)cc2c3c1CCCN3CCC2)C(=O)NCC(=O)NCC(=O)O)[C@@H](C)O,–,–,–
86%,26%,CC[C@H](C)[C@H](NC(=O)[C@H](CCCNC(=N)N)NC(=O)CN)C(=O)NCC(=O)N[C@@H](Cc1ccccc1)C(=O)N[C@@H](CC(C)C)C(=O)N[C@@H](CCCNC(=N)N)C(=O)NC(C(=O)N[C@@H](C)C(=O)N[C@@H](CCCCNC(=O)CCCN(C)c1ccc(/N=N/c2ccc3nc4ccc(N(CC)CC)cc4[n+](-c4ccccc4)c3c2)cc1)C(=O)NCC(=O)NCC(=O)O)[C@@H](C)O (stereo partly drawn) (H-GRIGFLR[ξThr(3R)]AK(X1)GG-OH),–,–,–
–,3%,CC[C@H](C)[C@H](NC(=O)[C@H](CCCNC(=N)N)NC(=O)CNC(=O)COCCOCCNC(=O)c1ccc(-c2c3nc(c(-c4ccccc4)c4ccc([nH]4)c(-c4ccccc4)c4nc(c(-c5ccccc5)c5ccc2[nH]5)C=C4)C=C3)cc1)C(=O)NCC(=O)N[C@@H](Cc1ccccc1)C(=O)N[C@@H](CC(C)C)C(=O)N[C@@H](CCCNC(=N)N)C(=O)N[C@H](C(=O)N[C@@H](C)C(=O)N[C@@H](CCCCN)C(=O)NCC(=O)NCC(=O)O)[C@@H](C)O ({Benzoyl(4-TriPhPorphyrinyl)-AEEA}-GRIGFLRTAKGG-OH),–,–,"metabolised at 8 h, 100 µM (MMP9): 2%"
